Source: patent publication US20030005484A1, “Microbiocidal and pesticidal aromatic aldehydes” (ProGuard, Inc., priority 1994, published 2003)
“And” between values parts separate entries of the source, which are not always exact repeats. Identical values can stand only once.

Key:
[1] = tested on: grape phylloxera eggs; test: whole plant or invertebrate; details: for eggs that did not hatch completely (IH) / nymphs that died in the shell (DIS): 7 days
Protocol: Mixed age groups of 60 grape phylloxera eggs were established on filter paper (Whatman #1, 5.5 cm circles) in 50×9 mm sealed plastic petri dishes treated with 100 μl of solution. A selected concentration of a test formulation of 400 μl was added to the filter disk and the dish closed with the petri dish cover and placed in a plastic container box. After 6 hours, the box was placed in an environmental chamber at 24° C. in the dark. The eggs were placed in groups of 10. After one week, the percentage of hatch is determined. In an initial test, doses from 0.1 to 25,000 ppm cinnamic aldehyde in 6% NaHCO3 and 2% Tween 80 were evaluated with a single group of eggs at each dosage. Three replicates of the experiment were performed. […] LD50 and LD95 were determined by probit analysis.
Grape phylloxera eggs were treated with cinnamaldehyde (CNMA) in a 6% NaHCO3, 2% Tween-80 formulation in a laboratory bioassay. Mortality of the eggs was indicated by failure of the egg shell to split. […] Leaves of one-year-old greenhouse Vitis vinifera cultivar Merlot vines heavily infested with grape phylloxera were sprayed to run-off with a CNMA treatment using the same formulation. […] Roots taken from plants 1, 2 and 5 weeks after CNMA or other treatments were placed in Petri dish bioassays and infested with untreated phylloxera eggs.
Eggs of various age classes were placed on Whatman #1 filter paper moistened with enough treatment solution to form a meniscus about halfway up the sides of the eggs. The pieces of filter paper with eggs were maintained in sealed plastic Petri dishes at […] until they were 7 days old and then hatched individuals were counted. Hatch was considered successful if the […]

[2] = tested on: Silverleaf Whitefly (Bemisia argentifolii); test: silverleaf whitefly 1st and 2nd instars on poinsettia; assay type: in vivo; details: 0.5% cinnamic aldehyde and […] Tween 20, 48 hours
Protocol: Clip cages were set on poinsettia plants leaves to capture white fly adults which then were allowed to oviposit for 48 hours. Four plants per treatment or control were put into an environmental chamber and the eggs allowed to incubate for 5 days until a majority of the eggs had hatched to first and second instar. Three treatments at 0.5% cinnamic aldehyde and 0.25% Tween 20 (T1, T2, T3) and three control treatments of 0.25% Tween 20 only (C1, C2, C3) were sprayed to run off on each plant. Mortality was recorded after 48 hours (see Table 23).

[3] = tested on: black bean aphid, Tetranychus urticae; test: aphid Petri dish bioassay; details: for mortality: three hours contact
Protocol: (§1) Activity of cinnamic aldehyde and/or coniferyl aldehyde against black bean aphid, Tetranychus urticae, and silverleaf white fly, Bemisia argentifolii was determined as follows:
Petri dishes (60 mm) were treated with cinnamic aldehyde at 10-25,000 ppm in 2% Tween 80 and 6% NaHCO3 dissolved in water, and the dishes allowed to air dry. Twenty adult aphids (Tetranychus urticae) were put in each dish, (replicate 10 times). The mortality after three hours in contact with a treated plate was compared to that of aphids in petri dishes treated only with diluent. Malathion (250 ppm) was used as a positive control.

[4] = tested on: phylloxera Biotype A; test: planter / field box vines, leaf spray, phylloxera population on roots; assay type: in vivo, Daktulosphaira vitifoliae; details: for Number of phylloxera per root piece: Merlot, two weeks; for reduction of population versus control vines: field planter boxes, after two weeks; for phylloxera population, Mean ± 95% CI: boxed 1 year old Merlot
Source text: Planter boxes are wooden boxes with a top surface area of 1.5 m×1 m and are 1.5 m tall. They were filled with a clay-loam soil and each was planted to 4 one-year old Merlot plants in early spring, 1995. They were infested with biotype A phylloxera in May, 1995 by placing about 150 eggs adjacent to an attached root under the soil surface. The plants were irrigated weekly with a fine mist. Treatments were made at various times in July and August 1995 using the household 1 liter-capacity plastic spray bottles, spraying to runoff. At one or two weeks after treatment, plants root systems were removed from the soil and total phylloxera populations were estimated.

[5] = tested on: silverleaf white fly, Bemisia argentifolii; test: silver leaf white fly Petri dish bioassay
Protocol: as §1
Petri dishes (60 mm) were treated with cinnamic aldehyde at 10-25,000 ppm in 2% Tween 80 and 6% NaHCO3 dissolved in water, and allowed to air dry. Twenty adult silver leaf white fly were put in each dish, (replicate 10 times). The mortality after three hours in contact with a treated plate, was compared to that of silver leaf white fly in petri dishes treated only with diluent. Malathion at 250 ppm was used as a positive control.

[6] = tested on: grape phylloxera; test: reinoculation bioassay of roots excised from leaf-treated vines; assay type: in vivo, Daktulosphaira vitifoliae; details: for phylloxera counted: 1st instar / phylloxera counted: 2nd instar / phylloxera counted: 3rd instar / phylloxera counted: 4th instar / phylloxera counted: Adults / phylloxera counted: Eggs: roots taken 5 weeks after treatment, 25 day bioassay
Source text: […] For this bioassay, root sections were inoculated with 20 eggs and the roots maintained as the original colonies were maintained (see description above). After 25 days, the number of individual phylloxera of each age class were counted.

[7] = 10 ppm in 6% NaHCO3, 2% Tween 80
[8] = 100 ppm in 6% NaHCO3, 2% Tween 80
[9] = 2500 ppm and above in 2% Tween 80 and 6% NaHCO3, three hours contact with treated dish

O=C/C=C/c1ccccc1 [cinnamic aldehyde]
7 day EC50, egg mortality (failure of the egg shell to split) ([1]; 6% NaHCO3, 2% Tween-80 formulation): 115 ppm | eggs that did not hatch completely (IH) [1, 7]: 100% | nymphs that died in the shell (DIS) [1, 7]: none died in the shell | eggs that did not hatch completely (IH) [1, 8]: 12% | nymphs that died in the shell (DIS) [1, 8]: 88% | nymphs that died in the shell (DIS) ([1]; 100 ppm in 6% NaHCO3, 2% Tween 80 plus 0.86 ml of 10 brix saponin solution): 93% | nymphs that died in the shell (DIS) ([1]; 5000 ppm aldehyde in 6% NaHCO3, 2% Tween 80): all nymphs died in the shell | Approximate Percent Mortality, egg test ([1]; CNMA 100 ppm, Days of Treatment 1): 8% | Approximate Percent Mortality, egg test ([1]; CNMA 100 ppm, Days of Treatment 2): 0% | Approximate Percent Mortality, egg test ([1]; CNMA 100 ppm, Days of Treatment 3): 0% | Approximate Percent Mortality, egg test ([1]; CNMA 100 ppm, Days of Treatment 4): 6% | Approximate Percent Mortality, egg test ([1]; CNMA 100 ppm, Days of Treatment 5): 25% | Approximate Percent Mortality, egg test ([1]; CNMA 180 ppm, Days of Treatment 1): 100% | Approximate Percent Mortality, egg test ([1]; CNMA 180 ppm, Days of Treatment 2): 0% | Approximate Percent Mortality, egg test ([1]; CNMA 180 ppm, Days of Treatment 3): 0% | Approximate Percent Mortality, egg test ([1]; CNMA 180 ppm, Days of Treatment 4): 47% | Approximate Percent Mortality, egg test ([1]; CNMA 180 ppm, Days of Treatment 5): 72% | Approximate Percent Mortality, egg test ([1]; CNMA 320 ppm, Days of Treatment 1): 100% | Approximate Percent Mortality, egg test ([1]; CNMA 320 ppm, Days of Treatment 2): 37% | Approximate Percent Mortality, egg test ([1]; CNMA 320 ppm, Days of Treatment 3): 28% | Approximate Percent Mortality, egg test ([1]; CNMA 320 ppm, Days of Treatment 4): 85% | Approximate Percent Mortality, egg test ([1]; CNMA 320 ppm, Days of Treatment 5): 100% | approximate egg hatch LD 50 ([1]; egg tests with CNMA analogs): 320 ppm | Alive, total of T1-T3 [2]: 35 | Dead, total of T1-T3 [2]: 363 | Mortality (%) ([2]; T1-T3 combined, Tween 20 control 9%): 91% | mortality ([3]; 10 ppm in 2% Tween 80 and 6% NaHCO3): 25% | mortality ([3]; 100 ppm in 2% Tween 80 and 6% NaHCO3): 50% | aphids killed [3, 9]: 100% | Number of phylloxera per root piece ([4]; 1 K CNMA, one value per plant): 133 and 72 and 95 | Number of phylloxera per root piece ([4]; 20 K (20,000 ppm CNMA in 6% NaHCO3 and 2% Tween-80)): 16 | reduction of population versus control vines ([4]; 1,000 ppm leaf spray): 92% | reduction of population versus control vines ([4]; 10,000 ppm leaf spray): 95% | phylloxera population, Mean ± 95% CI ([4]; foliage to runoff, 1000 ppm, Exp. 1): 100 ± 31 | phylloxera population, Mean ± 95% CI ([4]; foliage to runoff, 1000 ppm, Exp. 2): 58 ± 17 | phylloxera population, Mean ± 95% CI ([4]; foliage to runoff, 10,000 ppm, Exp. 1): 60 ± 37 | phylloxera population, Mean ± 95% CI ([4]; foliage to runoff, 10,000 ppm, Exp. 2): 43 ± 56 | silver leaf white fly killed [5, 9]: 100% | mortality at 10 ppm ([5]; Bemisia argentifolii, 3 h): 25% | mortality at 100 ppm ([5]; Bemisia argentifolii, 3 h): 50% | Silver Leaf White Fly Mortality (Percent) ([5]; Cinnamic Aldehyde (20 g) with NaHCO3): 87.3% | Silver Leaf White Fly Mortality (Percent) ([5]; Cinnamic Aldehyde (20 g) with T80(2%) + NaHCO3 (6%)): 100% | Silver Leaf White Fly Mortality (Percent) ([5]; Cinnamic Aldehyde (20 g) with T80 (10 g)): 72.1% | Silver Leaf White Fly Mortality (Percent) ([5]; Cinnamic Aldehyde (20 g), no additive): 68.6% | phylloxera counted: 1st instar ([6]; 300 ppm leaf treatment): 0 | phylloxera counted: 2nd instar ([6]; 300 ppm leaf treatment): 6 | phylloxera counted: 3rd instar ([6]; 300 ppm leaf treatment): 5 | phylloxera counted: 4th instar ([6]; 300 ppm leaf treatment): 0 | phylloxera counted: Adults ([6]; 300 ppm leaf treatment): 4 | phylloxera counted: Eggs ([6]; 300 ppm leaf treatment): 16 | phylloxera counted: 1st instar ([6]; 1000 ppm leaf treatment): 0 | phylloxera counted: 2nd instar ([6]; 1000 ppm leaf treatment): 1 | phylloxera counted: 3rd instar ([6]; 1000 ppm leaf treatment): 4 | phylloxera counted: 4th instar ([6]; 1000 ppm leaf treatment): 2 | phylloxera counted: Adults ([6]; 1000 ppm leaf treatment): 1 | phylloxera counted: Eggs ([6]; 1000 ppm leaf treatment): 2 | phylloxera counted: 1st instar ([6]; 3000 ppm leaf treatment): 0 | phylloxera counted: 2nd instar ([6]; 3000 ppm leaf treatment): 2 | phylloxera counted: 3rd instar ([6]; 3000 ppm leaf treatment): 1 | phylloxera counted: 4th instar ([6]; 3000 ppm leaf treatment): 1 | phylloxera counted: Adults ([6]; 3000 ppm leaf treatment): 0 | phylloxera counted: Eggs ([6]; 3000 ppm leaf treatment): 0 | phylloxera counted: 1st instar ([6]; 10,000 ppm leaf treatment): 0 | phylloxera counted: 2nd instar ([6]; 10,000 ppm leaf treatment): 2 | phylloxera counted: 3rd instar ([6]; 10,000 ppm leaf treatment): 0 | phylloxera counted: 4th instar ([6]; 10,000 ppm leaf treatment): 0 | phylloxera counted: Adults ([6]; 10,000 ppm leaf treatment): 0 | phylloxera counted: Eggs ([6]; 10,000 ppm leaf treatment): 0 | establishment of new phylloxera populations on roots from treated plants ([6]; roots taken 1, 2 and 5 weeks after treatment, infested with untreated eggs): not from the CNMA-treated plants
